For data set [1], the target named is Voltage-gated inwardly rectifying potassium channel KCNH2 (Homo sapiens, UniProt Q12809).
Description: Displacement of [3H]-astemizole from human ERG in HEK293 cells after 1 hrs by scintillation counting
For data set [2], the target named is C-C chemokine receptor type 2 (Homo sapiens, UniProt P41597). Description: Displacement of [125I]-MCP1 from human CCR2 receptor in THP1 cells after 2 hrs by scintillation counting. It is filed as cell-based, THP-1. On the technique in general: Loss of bound radioactivity is the signal in a displacement assay; it reports binding, not function.
Data set [3] can be described thus: Apparent permeability of the compound from apical to basolateral side in human Caco2 cell membrane. It is filed as ADME, cell-based. Particulars: Caco-2. Background: Caco-2 cells form a polarised layer with tight junctions and transporters.
Data set [4] is described as follows: Kinetic solubility of the compound at pH 2. Type of data set: physicochemical. Particulars: buffer, read-out: Kinetic_solubility.
Data set [5] in a line: Apparent permeability of the compound from basolateral to apical side in human Caco2 cell membrane. Type of data set: ADME, cell-based. Particulars: Caco-2.
Data set [6] is described as follows: Efflux ratio of permeability from basolateral to apical side over apical to basolateral side in human Caco2 cell membrane. It is filed as ADME, cell-based. Particulars: Caco-2.
The target in a further data set is hERG (KCNH2) (Homo sapiens, UniProt Q12809). Description: in vitro. Particulars: HEK293 cells that express hERG. (In general: Block of hERG is tested as a sign of cardiac risk.)

≈ marks a conversion by molar mass, not a printed value.

The results in this text go back to ChEMBL document CHEMBL1833932, “Design, synthesis and SAR of indazole and benzoisoxazole containing 4-azetidinyl-1-aryl-cyclohexanes as CCR2 antagonists” (Bioorg Med Chem Lett, 2011).

Voltage-gated inwardly rectifying potassium channel KCNH2, sequence (Q12809 whole entry): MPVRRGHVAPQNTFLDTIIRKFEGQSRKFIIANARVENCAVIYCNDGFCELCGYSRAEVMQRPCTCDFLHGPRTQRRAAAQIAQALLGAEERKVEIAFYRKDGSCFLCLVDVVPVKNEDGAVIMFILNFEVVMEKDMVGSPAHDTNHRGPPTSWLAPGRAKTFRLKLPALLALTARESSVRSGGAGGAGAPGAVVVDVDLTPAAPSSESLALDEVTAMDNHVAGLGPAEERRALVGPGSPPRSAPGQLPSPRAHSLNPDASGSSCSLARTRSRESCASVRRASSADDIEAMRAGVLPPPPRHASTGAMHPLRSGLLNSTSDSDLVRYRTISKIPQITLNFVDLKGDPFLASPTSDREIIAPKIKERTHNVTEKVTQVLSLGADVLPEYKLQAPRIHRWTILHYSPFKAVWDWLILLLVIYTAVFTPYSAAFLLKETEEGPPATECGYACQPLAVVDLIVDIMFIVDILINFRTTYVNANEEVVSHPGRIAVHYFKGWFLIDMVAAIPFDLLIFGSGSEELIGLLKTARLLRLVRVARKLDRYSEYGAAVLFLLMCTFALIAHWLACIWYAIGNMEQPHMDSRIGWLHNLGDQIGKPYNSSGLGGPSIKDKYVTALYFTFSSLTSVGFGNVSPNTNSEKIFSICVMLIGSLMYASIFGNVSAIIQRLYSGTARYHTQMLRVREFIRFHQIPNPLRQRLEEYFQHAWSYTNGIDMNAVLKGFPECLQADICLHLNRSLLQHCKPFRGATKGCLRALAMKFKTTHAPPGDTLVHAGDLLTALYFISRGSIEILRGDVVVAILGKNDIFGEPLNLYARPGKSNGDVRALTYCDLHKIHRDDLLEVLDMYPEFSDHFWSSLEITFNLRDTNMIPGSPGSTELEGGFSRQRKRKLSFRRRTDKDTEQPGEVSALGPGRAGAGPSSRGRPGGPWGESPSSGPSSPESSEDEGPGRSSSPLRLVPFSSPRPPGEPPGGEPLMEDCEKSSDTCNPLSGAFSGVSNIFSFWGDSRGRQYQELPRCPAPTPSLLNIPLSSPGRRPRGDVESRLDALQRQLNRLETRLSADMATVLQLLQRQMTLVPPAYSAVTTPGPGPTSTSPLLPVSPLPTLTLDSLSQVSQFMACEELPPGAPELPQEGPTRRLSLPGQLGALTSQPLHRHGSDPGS
C-C chemokine receptor type 2, sequence (P41597 whole entry): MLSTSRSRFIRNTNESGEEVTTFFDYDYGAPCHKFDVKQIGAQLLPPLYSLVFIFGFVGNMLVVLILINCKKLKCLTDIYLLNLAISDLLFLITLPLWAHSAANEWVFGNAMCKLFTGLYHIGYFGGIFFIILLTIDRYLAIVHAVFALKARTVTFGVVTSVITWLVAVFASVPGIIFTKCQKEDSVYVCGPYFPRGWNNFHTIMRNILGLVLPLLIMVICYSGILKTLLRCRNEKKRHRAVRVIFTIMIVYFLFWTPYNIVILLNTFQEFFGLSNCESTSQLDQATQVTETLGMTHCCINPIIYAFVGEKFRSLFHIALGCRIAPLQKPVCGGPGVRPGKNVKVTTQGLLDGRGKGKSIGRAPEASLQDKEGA
hERG (KCNH2), sequence (Q12809 whole entry): as the sequence (Q12809 whole entry) above

The term IC50 denotes the concentration that inhibits the measured activity by half. Low readings indicate greater potency in that assay, high ones weaker potency in that assay. `C#C[C@H]1CC[C@@H](N2CC(NC(=O)CNc3nn(C)c4ccc(C(F)(F)F)cc34)C2)CC1`: the IC50 in data set [1] was above 50000 nM; in data set [2] it was 10000 nM.

Regarding `O=C(Cn1[nH]c2ccc(C(F)(F)F)cc2c1=O)NC1CN([C@H]2CC[C@@H](c3ccccc3)CC2)C1`, the IC50 in data set [2] came to 5400 nM.

The compound `O=C(CSc1n[nH]c2ccc(C(F)(F)F)cc12)NC1CN([C@H]2CC[C@@H](c3ccccc3)CC2)C1` showed an IC50 in data set [2] of 290 nM.

In data set [2], `O=C(COc1n[nH]c2ccc(C(F)(F)F)cc12)NC1CN([C@H]2CC[C@@H](c3ccccc3)CC2)C1` showed an IC50 of 510 nM.

In data set [2], `O=C(CNc1n[nH]c2ccc(C(F)(F)F)cc12)NC1CN([C@H]2CC[C@@H](c3ccc4c(c3)OCO4)CC2)C1` yielded an IC50 of 6 nM. This IC50 lies about 85-fold lower than the previous one.

In the case of `NC(=O)Cc1ccc([C@H]2CC[C@@H](N3CC(NC(=O)CNc4n[nH]c5ccc(C(F)(F)F)cc45)C3)CC2)cc1`, the IC50 in data set [1] came out at 9500 nM; in data set [2], 12 nM.

On to `Cn1nc(NCC(=O)NC2CN([C@H]3CC[C@@H](c4ccc5c(c4)OCO5)CC3)C2)c2cc(C(F)(F)F)ccc21`, for which the IC50 in data set [2] came to 13 nM.

Consider `O=C(CNc1n[nH]c2ccc(C(F)(F)F)cc12)NC1CN([C@H]2CC[C@@H](n3ccccc3=O)CC2)C1`, for which the IC50 in data set [2] came out at 63 nM.

Regarding `CC(C)[C@H]1CC[C@@H](N2CC(NC(=O)CNc3n[nH]c4ccc(C(F)(F)F)cc34)C2)CC1`, the IC50 in data set [1] is 6200 nM; in data set [2], 370 nM.

Turning to `Cn1nc(NCC(=O)NC2CN([C@H]3CC[C@@H](C#N)CC3)C2)c2cc(C(F)(F)F)ccc21`, the IC50 in data set [2] worked out at 330 nM.

`Cn1nc(NCC(=O)NC2CN([C@H]3CC[C@@H](C4CCCCC4)CC3)C2)c2cc(C(F)(F)F)ccc21` returned an IC50 in data set [2] of 120 nM. Against the preceding compound, the IC50 is about 2.8-fold lower.

On to `CCOC(=O)[C@H]1CC[C@@H](N2CC(NC(=O)CNc3nn(C)c4ccc(C(F)(F)F)cc34)C2)CC1`, for which the IC50 in data set [1] is 8000 nM; in data set [2] it was 13 nM.

Turning to `Cn1nc(NCC(=O)NC2CN([C@H]3CC[C@@H](C(=O)O)CC3)C2)c2cc(C(F)(F)F)ccc21`, the IC50 is 25000 nM in data set [1] and 2600 nM in data set [2].

As for `Cn1nc(NCC(=O)NC2CN([C@H]3CC[C@@H](C(N)=O)CC3)C2)c2cc(C(F)(F)F)ccc21`, the IC50 in data set [1] was determined as 32000 nM; in data set [2], 510 nM.

In data set [2], `Cn1nc(NCC(=O)NC2CN([C@H]3CC[C@@H](CO)CC3)C2)c2cc(C(F)(F)F)ccc21` gave an IC50 of 44 nM.

On to `CCOC[C@H]1CC[C@@H](N2CC(NC(=O)CNc3nn(C)c4ccc(C(F)(F)F)cc34)C2)CC1`, for which the results for the 50% inhibitory concentration (IC50) in data set [1] and in data set [2] were 5600 nM and 27 nM, respectively.

In the case of `O=C(CNc1n[nH]c2ccc(C(F)(F)F)cc12)NC1CN([C@H]2CC[C@@H](O)CC2)C1`, the IC50 is 30000 nM in data set [1] and 530 nM in data set [2].

As for `N[C@H]1CC[C@@H](N2CC(NC(=O)CNc3n[nH]c4ccc(C(F)(F)F)cc34)C2)CC1`, the figures for the IC50 in data set [1] and in data set [2] were above 50000 nM and above 25000 nM, respectively.

For `CS(=O)(=O)N[C@H]1CC[C@@H](N2CC(NC(=O)CNc3n[nH]c4ccc(C(F)(F)F)cc34)C2)CC1`, the IC50 in data set [2] is 2080 nM. That is a single-digit micromolar value.

Consider `O=C(CNc1noc2ccc(C(F)(F)F)cc12)NC1CN([C@H]2CC[C@@H](c3ccc4c(c3)OCO4)CC2)C1`, for which the IC50 in data set [1] was 1900 nM; in data set [2], 36 nM.

`CC(C)(C)NC(=O)n1nc(NCC(=O)NC2CN([C@H]3CC[C@@H](c4ccc5c(c4)OCO5)CC3)C2)c2cc(C(F)(F)F)ccc21`: in data set [2], the IC50 is 55 nM.

As usually defined, the Papp A→B is the apparent permeability from the apical to the basolateral side of a cell layer. For orientation: Papp B→A means the apparent permeability from the basolateral to the apical side of a cell layer. Broadly, the efflux ratio is the permeability from basolateral to apical divided by that in the opposite direction, in the common usage. In the case of `NC(=O)n1nc(NCC(=O)NC2CN([C@H]3CC[C@@H](c4ccc5c(c4)OCO5)CC3)C2)c2cc(C(F)(F)F)ccc21`, in data set [3], the Papp A→B was found to be 0.15 ×10⁻⁶ cm/s. For the same compound, the solubility kinetic in data set [4] was 3.5 µM (≈ 1.95 µg/mL). Besides, the IC50 was 12000 nM in data set [1] and 82 nM in data set [2]. Besides, the Papp B→A in data set [5] stood at 2.44 ×10⁻⁶ cm/s. For the same compound, the efflux ratio in data set [6] was determined as 16.2.

For the compound `CCOC(=O)[C@H]1CC[C@@H](N2CC(NC(=O)CNc3n[nH]c4ccc(C(F)(F)F)cc34)C2)CC1`, the half-inhibitory concentration (IC50) is 9100 nM in data set [1] and 27 nM in data set [2].

In data set [2], `CCOC(=O)[C@H]1CC[C@@H](N2CC(NC(=O)CNc3noc4ccc(C(F)(F)F)cc34)C2)CC1` returned an IC50 of 29 nM.

For the compound `C=CCn1nc(NCC(=O)NC2CN([C@H]3CC[C@@H](C(=O)OCC)CC3)C2)c2cc(C(F)(F)F)ccc21`, the concentration for half-maximal inhibition (IC50) in data set [2] is 22 nM.

In the case of `CCOC(=O)[C@H]1CC[C@@H](N2CC(NC(=O)CNc3nn(CC(F)(F)F)c4ccc(C(F)(F)F)cc34)C2)CC1`, the IC50 worked out at 2500 nM in data set [1] and 230 nM in data set [2].

For the compound `CCOC(=O)[C@H]1CC[C@@H](N2CC(NC(=O)CNc3nn(C(N)=O)c4ccc(C(F)(F)F)cc34)C2)CC1`, the Papp A→B in data set [3] worked out at 0.32 ×10⁻⁶ cm/s. For the same compound, the solubility kinetic in data set [4] was 8.9 µM (≈ 4.54 µg/mL). Further, the IC50 in data set [1] came to 20000 nM; in data set [2], 56 nM. Besides, in data set [5], the Papp B→A came to 3.5 ×10⁻⁶ cm/s. Further, in data set [6], the efflux ratio turned out to be 10.9.

Turning to `CCOC(=O)[C@H]1CC[C@@H](N2CC(NC(=O)CNc3nn(S(C)(=O)=O)c4ccc(C(F)(F)F)cc34)C2)CC1`, the IC50 came to 25000 nM in data set [1] and 920 nM in data set [2].

Turning to `CCOC(=O)[C@H]1CC[C@@H](N2CC(NC(=O)CNc3nn(C4CCCC4)c4ccc(C(F)(F)F)cc34)C2)CC1`, the IC50 in data set [1] turned out to be 4100 nM; in data set [2] it was 650 nM.

A word on the inhibition: it is how much of the control response was suppressed. On to `Cc1ccc([C@H]2CC[C@@H](N3CC(NC(=O)CNc4n[nH]c5ccc(C(F)(F)F)cc45)C3)CC2)cn1`, for which the IC50 in data set [1] amounted to 27000 nM; in data set [2], 6 nM. For the same compound, at hERG (KCNH2), the inhibition at 5 min, 3 µM turned out to be 23%.

In data set [2], `O=C(CNc1nn(CCO)c2ccc(C(F)(F)F)cc12)NC1CN([C@H]2CC[C@@H](c3nccs3)CC2)C1` showed an IC50 of 29 nM. That is a double-digit nanomolar value.

In the case of `Cn1nc(NCC(=O)NC2CN([C@H]3CC[C@@H](c4ncco4)CC3)C2)c2cc(C(F)(F)F)ccc21`, the IC50 in data set [2] amounted to 480 nM.

In the case of `COc1ccc([C@]2(O)CC[C@H](N3CC(NC(=O)CNc4n[nH]c5ccc(C(F)(F)F)cc45)C3)CC2)cn1`, the IC50 is 32000 nM in data set [1] and 16 nM in data set [2]. The compound also yielded an inhibition at 5 min, 3 µM at hERG (KCNH2) of 30%.

Compound `O=C(CNc1n[nH]c2ccc(C(F)(F)F)cc12)NC1CN([C@H]2CC[C@@H](c3ccccc3)CC2)C1` (stereo in doubt; 5) showed an IC50 in data set [2] (thp-1) of 12 nM.

In the case of `O=C(CNc1n[nH]c2ccc(C(F)(F)F)cc12)NC1CN([C@H]2CC[C@@H](c3ccccc3)CC2)C1` (stereo in doubt; 13a), the IC50 is 1200 nM in data set [1] and 12 nM in data set [2].
